≈ marks a conversion by molar mass, not a printed value.
Experiments:
Type in all cases: functional
Escherichia coli = assay: Antimicrobial activity against Escherichia coli ATCC35218 assessed as growth inhibition after 24 hrs by microdilution assay
Bacillus subtilis = assay: Antimicrobial activity against Bacillus subtilis ATCC9372 assessed as growth inhibition after 24 hrs by microdilution assay
Candida albicans = assay: Antimicrobial activity against Candida albicans SC5314 assessed as growth inhibition after 24 hrs by microdilution assay
[1] = system: Staphylococcus epidermidis; assay: Antimicrobial activity against Staphylococcus epidermis CCM628 assessed as growth inhibition after 24 hrs by microdilution assay
Staphylococcus aureus = assay: Antimicrobial activity against Staphylococcus aureus ATCC12715 assessed as growth inhibition after 24 hrs by microdilution assay

Row | MIC (Escherichia coli) [µg/mL] | MIC (Bacillus subtilis) [µg/mL] | MIC (Candida albicans) [µg/mL] | MIC [1] [µg/mL] | MIC (Staphylococcus aureus) [µg/mL] | Compound
1 | > 64 | 0.25 (≈ 0.153 µM) | > 64 | 0.25 (≈ 0.153 µM) | 0.5 (≈ 0.305 µM) | C=C(NC(=O)C(=C)NC(=O)c1csc([C@H]2CC[C@]34NC(=O)C(=C)NC(=O)C(=C)NC(=O)C(=C)NC(=O)[C@H](C)N[C@@H]5C=Cc6c([C@H](C)O)cc(nc6[C@H]5O)C(=O)O[C@H](C)[C@H](NC(=S)c5csc(n5)[C@H]([C@@](C)(O)[C@H](C)O)NC(=O)[C@H]5CSC(=N5)/C(=C/C)NC(=O)[C@H]([C@@H](C)O)NC(=O)c5csc3n5)c3nc(cs3)[C@H]4N2)n1)C(=O)O
2 | > 64 | 8 (≈ 4.93 µM) | > 64 | 2 (≈ 1.23 µM) | 8 (≈ 4.93 µM) | C=C(NC(=O)C(=C)NC(=O)c1csc([C@H]2CC[C@]34NC(=O)C(=C)NC(=O)C(=C)NC(=O)C(=C)NC(=O)[C@H](C)N[C@@H]5C=Cc6c([C@H](C)O)cc(nc6[C@H]5O)C(=O)O[C@H](C)[C@H](NC(=O)c5csc(n5)[C@H]([C@@](C)(O)[C@H](C)O)NC(=O)[C@H]5CSC(=N5)/C(=C/C)NC(=O)[C@H]([C@@H](C)O)NC(=O)c5csc3n5)c3nc(cs3)[C@H]4N2)n1)C(=O)O
3 | > 64 | 1 (≈ 0.638 µM) | > 64 | 0.5 (≈ 0.319 µM) | 2 (≈ 1.28 µM) | C=C(NC(=O)c1csc([C@H]2CC[C@]34NC(=O)C(=C)NC(=O)C(=C)NC(=O)C(=C)NC(=O)[C@H](C)N[C@@H]5C=Cc6c([C@H](C)O)cc(nc6[C@H]5O)C(=O)O[C@H](C)[C@H](NC(=S)c5csc(n5)[C@H]([C@@](C)(O)[C@H](C)O)NC(=O)[C@H]5CSC(=N5)/C(=C/C)NC(=O)[C@H]([C@@H](C)O)NC(=O)c5csc3n5)c3nc(cs3)[C@H]4N2)n1)C(N)=O
4 | > 64 | 1 (≈ 0.667 µM) | > 64 | 0.5 (≈ 0.334 µM) | 1 (≈ 0.667 µM) | C=C1NC(=O)C(=C)NC(=O)[C@H](C)N[C@@H]2C=Cc3c([C@H](C)O)cc(nc3[C@H]2O)C(=O)O[C@H](C)[C@@H]2NC(=S)c3csc(n3)[C@H]([C@@](C)(O)[C@H](C)O)NC(=O)[C@H]3CSC(=N3)/C(=C/C)NC(=O)[C@H]([C@@H](C)O)NC(=O)c3csc(n3)[C@]3(CC[C@H](c4nc(C(N)=O)cs4)N[C@@H]3c3csc2n3)NC(=O)C(=C)NC1=O
5 | > 64 | 0.06 (≈ 0.036 µM) | > 64 | < 0.01 | 0.06 (≈ 0.036 µM) | C=C(NC(=O)C(=C)NC(=O)c1csc(C2=N[C@@H]3c4csc(n4)[C@H]4NC(=O)c5csc(n5)[C@H]([C@@](C)(O)[C@H](C)O)NC(=O)[C@H]5CSC(=N5)/C(=C/C)NC(=O)[C@H]([C@@H](C)O)NC(=O)c5csc(n5)[C@]3(CC2)NC(=O)[C@H](C)NC(=O)C(=C)NC(=O)[C@H](C)NC(=O)[C@H]([C@@H](C)CC)N[C@@H]2C=Cc3c([C@H](C)O)cc(nc3[C@H]2O)C(=O)O[C@@H]4C)n1)C(N)=O

Row | Compound | MIC (Escherichia coli) [µg/mL] | MIC (Bacillus subtilis) [µg/mL] | MIC (Candida albicans) [µg/mL] | MIC [1] [µg/mL] | MIC (Staphylococcus aureus) [µg/mL]
6 | O=C(O)c1cn(C2CC2)c2cc(N3CCNCC3)c(F)cc2c1=O [CIPROFLOXACIN] | < 0.01 | 0.06 (≈ 0.181 µM) | > 64 | 0.06 (≈ 0.181 µM) | 0.06 (≈ 0.181 µM)
7 | C[C@@H]1[C@H](O)[C@@H](C)/C=C/C=C/C=C/C=C/C=C/C=C/C=C/[C@H](O[C@@H]2O[C@H](C)[C@@H](O)[C@H](N)[C@@H]2O)C[C@@H]2O[C@](O)(C[C@@H](O)C[C@@H](O)[C@H](O)CC[C@@H](O)C[C@@H](O)CC(=O)O[C@H]1C)C[C@H](O)[C@H]2C(=O)O [AMPHOTERICIN B] | > 64 | > 64 | 0.25 (≈ 0.271 µM) | > 64 | > 64

— ChEMBL document CHEMBL4842307, “Targeted Isolation of Saalfelduracin B-D from Amycolatopsis saalfeldensis Using LC-MS/MS-Based Molecular Networking” (2021)
